In US11141413B2, “Method of treating renal cell carcinoma using N-(4-(6,7-dimethoxyquinolin-4-yloxy)phenyl)-N′-(4-fluorophenyl)cyclopropane-1,1-dicarboxamide, (2S)-hydroxybutanedioate” (Exelixis, Inc., priority 2016, dated 2021):

Test system: patients with advanced renal cell carcinoma
Settings: in vivo
Experimental: Treatment modifications, including interruptions and dose reductions, were allowed to manage adverse events. […] Patients were allowed to continue study treatment beyond radiographic progression at the discretion of the investigator. On-study crossover between treatment groups was not permitted. Safety evaluations, including physical examination, vital signs, and laboratory assessments, were conducted every 2 weeks for the first 8 weeks and then every 4 weeks thereafter. ECG assessments were performed every 4 weeks for the first 8 weeks and then every 12 weeks. A safety follow-up visit was scheduled 30 days after treatment discontinuation. Adverse events were assessed by investigators and graded according to CTCAE version 4.0.
Safety analyses were limited to patients who received any amount of study treatment.

For `CO[C@H]1C[C@@H]2CC[C@@H](C)[C@@](O)(O2)C(=O)C(=O)N2CCCC[C@H]2C(=O)O[C@H]([C@H](C)C[C@@H]2CC[C@@H](OCCO)[C@H](OC)C2)CC(=O)[C@H](C)/C=C(\C)[C@@H](O)[C@@H](OC)C(=O)[C@H](C)C[C@H](C)/C=C/C=C/C=C/1C` [everolimus], the “Grade 3 and 4 adverse events: Diarrhea, %” value (human) was 3%, the “Grade 3 or 4 Adverse Events: Diarrhea, %” value (human) was “(3) %” and the “Grade 3 or 4 Adverse Events: Hypokalaemia, %” value (human) was “(2) %”. For the same molecule, the “Grade 3 or 4 Adverse Events: PPES, %” value (human) was “(1) %”, the “Grade 3 or 4 adverse events” value (human) was 193 (60%) n (%) and the “Grade 5 adverse events regardless of causality” value (human) was 7.8%. The “Headache, All Grades” value (human) was 12%, the “Headache, Grade 1-2” value (human) was 42 (13) n (%) and the “Headache, Grade 3” value (human) was 1 (<1) n (%). For the same molecule, the “Headache, Grade 3-4” value (human) was under 1%, the “Headache, Grade 4” value (human) was 0 n (%) and the “Hemoglobin decreased, All Grades” value (human) was 71%. For the same molecule, the “Hemoglobin decreased, Grade 3-4” value (human) was 17%, the “Hyperglycemia, All Grades” value (human) was 59% and the “Hyperglycemia, Grade 1-2” value (human) was 46 (14) n (%). For the same molecule, the “Hyperglycemia, Grade 3” value (human) was 16 (5) n (%), the “Hyperglycemia, Grade 3-4” value (human) was 8% and the “Hyperglycemia, Grade 4” value (human) was 0 n (%). For the same molecule, the “Hyperglycemia, grade 3 or 4” value (human) was 16 [5%] n [%], the “Hypertension, All Grades” value (human) was 8% and the “Hypertension, Grade 1-2” value (human) was 14 (4) n (%). For the same molecule, the “Hypertension, Grade 3” value (human) was 12 (4) n (%), the “Hypertension, Grade 3-4” value (human) was 3% and the “Hypertension, Grade 4” value (human) was 0 n (%). For the same molecule, the “Hypertriglyceridemia, Grade 1-2” value (human) was 31 (10) n (%), the “Hypertriglyceridemia, Grade 3” value (human) was 7 (2) n (%) and the “Hypertriglyceridemia, Grade 4” value (human) was 3 (<1) n (%). The “Hypoalbuminemia, All Grades” value (human) was 28%, the “Hypoalbuminemia, Grade 3-4” value (human) was under 1% and the “Hypomagnesaemia, Grade 1-2” value (human) was 5 (2) n (%). For the same molecule, the “Hypomagnesaemia, Grade 3” value (human) was 0 n (%), the “Hypomagnesaemia, Grade 4” value (human) was 0 n (%) and the “Hypomagnesemia, All Grades” value (human) was 4%. The “Hypomagnesemia, Grade 3-4” value (human) was under 1%, the “Hyponatremia, All Grades” value (human) was 26% and the “Hyponatremia, Grade 3-4” value (human) was 6%. The “Hypophosphatemia, All Grades” value (human) was 36%, the “Hypophosphatemia, Grade 3-4” value (human) was 5% and the “Hypothyroidism, All Grades” value (human) was under 1%. The “Hypothyroidism, Grade 1-2” value (human) was 1 (<1) n (%), the “Hypothyroidism, Grade 3” value (human) was 1 (<1) n (%) and the “Hypothyroidism, Grade 3-4” value (human) was under 1%. For the same molecule, the “Hypothyroidism, Grade 4” value (human) was 0 n (%), the “Incidence of Grade ≥3 hemorrhagic events” value (human) was 1.6% and the “Insomnia, Grade 1-2” value (human) was 33 (10) n (%). For the same molecule, the “Insomnia, Grade 3” value (human) was 1 (<1) n (%), the “Insomnia, Grade 4” value (human) was 0 n (%) and the “Lymphocytes decreased, All Grades” value (human) was 39%. The “Lymphocytes decreased, Grade 3-4” value (human) was 12%, the “Mucosal inflammation, All Grades” value (human) was 23% and the “Mucosal inflammation, Grade 1-2” value (human) was 64 (20) n (%). The “Mucosal inflammation, Grade 3” value (human) was 10 (3) n (%), the “Mucosal inflammation, Grade 3-4” value (human) was 3% and the “Mucosal inflammation, Grade 4” value (human) was 1 (<1) n (%). For the same molecule, the “Muscle spasms, All Grades” value (human) was 5%, the “Muscle spasms, Grade 1-2” value (human) was 17 (5) n (%) and the “Muscle spasms, Grade 3” value (human) was 0 n (%). For the same molecule, the “Muscle spasms, Grade 3-4” value (human) was 0%, the “Muscle spasms, Grade 4” value (human) was 0 n (%) and the “Nausea, All Grades” value (human) was 28%. For the same molecule, the “Nausea, Grade 1-2” value (human) was 92 (29) n (%), the “Nausea, Grade 3” value (human) was 1 (<1) n (%) and the “Nausea, Grade 3-4” value (human) was under 1%. The “Nausea, Grade 4” value (human) was 0 n (%), the “Overall incidence of adverse events regardless of causality” value (human) was over 99% and the “Pain in extremity, All Grades” value (human) was 8%. The “Pain in extremity, Grade 1-2” value (human) was 31 (10) n (%), the “Pain in extremity, Grade 3” value (human) was 1 (<1) n (%) and the “Pain in extremity, Grade 3-4” value (human) was under 1%. The “Pain in extremity, Grade 4” value (human) was 0 n (%), the “Palmar-plantar erythrodysaesthesia syndrome, Grade 1-2” value (human) was 16 (5) n (%) and the “Palmar-plantar erythrodysaesthesia syndrome, Grade 3” value (human) was 3 (<1) n (%). For the same molecule, the “Palmar-plantar erythrodysaesthesia syndrome, Grade 4” value (human) was 0 n (%), the “Palmar-plantar erythrodysesthesia syndrome, All Grades” value (human) was 6% and the “Palmar-plantar erythrodysesthesia syndrome, Grade 3-4” value (human) was under 1%. The “Patients with dose reduced” value (human) was 24%, the “Patients with dose reductions” value (human) was 25% and the “Platelets decreased, All Grades” value (human) was 27%. The “Platelets decreased, Grade 3-4” value (human) was under 1%, the “Proteinuria, All Grades” value (human) was 9% and the “Proteinuria, Grade 1-2” value (human) was 28 (9) n (%). For the same molecule, the “Proteinuria, Grade 3” value (human) was 2 (<1) n (%), the “Proteinuria, Grade 3-4” value (human) was under 1% and the “Proteinuria, Grade 4” value (human) was 0 n (%). The “Pruritus, Grade 1-2” value (human) was 48 (15) n (%), the “Pruritus, Grade 3” value (human) was 1 (<1) n (%) and the “Pruritus, Grade 4” value (human) was 0 n (%). For the same molecule, the Pulmonary embolism (human) was 0.3%, the “Pyrexia, Grade 1-2” value (human) was 57 (18) n (%) and the “Pyrexia, Grade 3” value (human) was 2 (<1) n (%). The “Pyrexia, Grade 4” value (human) was 0 n (%), the “Rash, All Grades” value (human) was 43% and the “Rash, Grade 1-2” value (human) was 92 (29) n (%). For the same molecule, the “Rash, Grade 3” value (human) was 2 (<1) n (%), the “Rash, Grade 3-4” value (human) was under 1% and the “Rash, Grade 4” value (human) was 0 n (%). For the same molecule, the “Serious adverse events ≥grade 3” value (human) was 129 (40%) n (%), the “Stomatitis, All Grades” value (human) was 24% and the “Stomatitis, Grade 1-2” value (human) was 71 (22) n (%). The “Stomatitis, Grade 3” value (human) was 7 (2) n (%), the “Stomatitis, Grade 3-4” value (human) was 2% and the “Stomatitis, Grade 4” value (human) was 0 n (%). The “Study treatment discontinuation due to diarrhea” value (human) was 0.9%, the “Treatment discontinuation due to an adverse event not related to disease progression” value (human) was 10% and the Treatment-emergent hypertension (human) was 7.1%. For the same molecule, the “Treatment-emergent hypertension, Grade ≥3” value (human) was 3.1%, the “Triglycerides increased, All Grades” value (human) was 73% and the “Triglycerides increased, Grade 3-4” value (human) was 13%. The Venous thromboembolism (human) was 2.5%, the “Vomiting, All Grades” value (human) was 14% and the “Vomiting, Grade 1-2” value (human) was 44 (14) n (%). For the same molecule, the “Vomiting, Grade 3” value (human) was 3 (<1) n (%), the “Vomiting, Grade 3-4” value (human) was under 1% and the “Vomiting, Grade 4” value (human) was 0 n (%). The “Weight decreased, All Grades” value (human) was 12%, the “Weight decreased, Grade 1-2” value (human) was 42(13) n (%) and the “Weight decreased, Grade 3” value (human) was 0 n (%). For the same molecule, the “Weight decreased, Grade 3-4” value (human) was 0%, the “Weight decreased, Grade 4” value (human) was 0 n (%) and the “White blood cells decreased, All Grades” value (human) was 31%. For the same molecule, the “White blood cells decreased, Grade 3-4” value (human) was under 1% and the “Grade 5 adverse events assessed as treatment-related” value was “two”.
